This is an account of results in paper PMC5965259 (Journal of medicinal chemistry, 2018).

In the first experiment the test system is bloodstream form T. brucei Lister 427. The experiment is described as follows: ATP–bioluminescence-based bloodstream form T. brucei cell viability assay. As to conditions: Trypanosoma brucei, 48 h, read-out: Tb427 EC50.
Turning to `Cc1cc(Nc2cc(Br)cc(Br)c2)nc(N)n1` [Compound 44, N^4-(3,5-Dibromophenyl)-6-methylpyrimidine-2,4-diamine], the half-maximal effective concentration (EC50) amounted to 4.8 µM. The same measure, in the same setting: the figure for `Nc1cc(Nc2cc(Cl)cc(Cl)c2)ccn1` [Compound 21, N^4-(3,5-Dichlorophenyl)pyridine-2,4-diamine] is 11 µM. On the same count and under the same terms, the figure for `Cc1cc(Nc2cc(Cl)c(C)c(Cl)c2)nc(N)n1` [Compound 65, N^4-(3,5-Dichloro-4-methylphenyl)-6-methylpyrimidine-2,4-diamine] is 4.4 µM; for `Cc1cc(Nc2cccc(Cl)c2)nc(N)n1` [Compound 55, N^4-(3-Chlorophenyl)-6-methylpyrimidine-2,4-diamine] it is 42 µM.

With `Cc1cc(Nc2cc(Cl)cc(-c3ccc(Cl)cc3)c2)nc(N)n1` [Compound 92, N^4-(4′,5-Dichloro-[1,1′-biphenyl]-3-yl)-6-methylpyrimidine-2,4-diamine], the EC50 came to 2.2 µM. For `Cc1cc(Nc2cc(F)cc(Cl)c2)nc(N)n1` [Compound 61, N^4-(3-Chloro-5-fluorophenyl)-6-methylpyrimidine-2,4-diamine], the EC50 stood at 17 µM. Still for that read-out and setting: for `Cc1cc(NCc2cc(Cl)cc(Cl)c2)nc(N)n1` [Compound 30, N^4-(3,5-Dichlorobenzyl)-6-methylpyrimidine-2,4-diamine] the value was 11 µM.

Turning to `Cc1cc(Nc2ccc(C(F)(F)F)cc2)nc(N)n1` [Compound 88], the EC50 was found to be 15 µM. The same measure, in the same setting: for `Cc1cc(Nc2cc(Cl)cc(-c3ccc(Cl)c(Cl)c3)c2)nc(N)n1` [Compound 103, 6-Methyl-N^4-(3′,4′,5-trichloro-[1,1′-biphenyl]-3-yl)pyrimidine-2,4-diamine] the value was 2.9 µM; for `Cc1cc(Nc2cc(Cl)cc(-c3ccc4c(c3)OCO4)c2)nc(N)n1` [Compound 109, N^4-(3-(Benzo[d][1,3]dioxol-5-yl)-5-chlorophenyl)-6-methylpyrimidine-2,4-diamine], 2.3 µM; for `Cc1cc(Nc2cc(Cl)c(Oc3ccccc3)c(Cl)c2)nc(N)n1` [Compound 66, N^4-(3,5-Dichloro-4-phenoxyphenyl)-6-methylpyrimidine-2,4-diamine], 1.1 µM. For `Cc1cc(Nc2ccccc2C)nc(N)n1` [Compound 77], the 50% effective concentration (EC50) is greater than 25 µM. On the same count and under the same terms, for `Nc1cccc(Nc2cc(Cl)cc(Cl)c2)n1` [Compound 17] the value was 96 µM; for `Nc1cc(Nc2cc(Cl)cc(Cl)c2)nc(N)n1` [Compound 26, N^4-(3,5-Dichlorophenyl)pyrimidine-2,4,6-triamine], 14 µM; for `Cc1cc(Nc2cc(C(=O)Nc3cc(Cl)cc(Cl)c3)cc(C(=O)Nc3cc(Cl)cc(Cl)c3)c2)nc(N)n1` [Compound 51, 5-((2-Amino-6-methylpyrimidin-4-yl)amino)-N^1,N^3-bis(3,5-dichlorophenyl)isophthalamide], 2 µM. Same read-out and setting: for `Cc1cc(Nc2cc(Br)cc(S(F)(F)(F)(F)F)c2)nc(N)n1` [Compound 37, N^4-(3-Bromo-5-(pentafluoro-λ^6-sulfaneyl)phenyl)-6-methylpyrimidine-2,4-diamine] the value was 0.45 µM. Still for that read-out and setting: the figure for `Cc1cc(Nc2cc(Cl)cc(Cl)c2)ncn1` [Compound 23, N-(3,5-Dichlorophenyl)-6-methylpyrimidin-4-amine] is 27 µM; for `CCc1cc(Nc2cc(C)nc(N)n2)cc(-c2ccc(F)cc2)c1` [Compound 118, N^4-(5-Ethyl-4′-fluoro-[1,1′-biphenyl]-3-yl)-6-methylpyrimidine-2,4-diamine] it is 1.3 µM. As to `CNc1nc(C)cc(Nc2cc(Cl)cc(Cl)c2)n1` [Compound 24, N^4-(3,5-Dichlorophenyl)-N^2,6-dimethylpyrimidine-2,4-diamine], the EC50 worked out at 2.7 µM. The same measure, in the same setting: the figure for `Nc1nc(Cl)cc(Nc2cc(Cl)cc(Cl)c2)n1` [Compound 13] is 8.9 µM; for `Cc1nc(N)cc(Nc2cc(Cl)cc(Br)c2)n1` [Compound 27, N^4-(3-Bromo-5-chlorophenyl)-2-methylpyrimidine-4,6-diamine] it is 20 µM; for `C=CCOc1cc(Br)cc(Nc2cc(C)nc(N)n2)c1` [Compound 41, N^4-(3-(Allyloxy)-5-bromophenyl)-6-methylpyrimidine-2,4-diamine] it is 4.4 µM. The same measure, in the same setting: the figure for `Cc1cc(Nc2ccc(-c3cc(Cl)cc(Cl)c3)cc2)nc(N)n1` [Compound 89, N^4-(3′,5′-Dichloro-[1,1′-biphenyl]-4-yl)-6-methylpyrimidine-2,4-diamine] is 1 µM; for `Cc1cc(Nc2cc(Br)cc(OCC(F)(F)F)c2)nc(N)n1` [Compound 40, N^4-(3-Bromo-5-(2,2,2-trifluoroethoxy)phenyl)-6-methylpyrimidine-2,4-diamine] it is 4.2 µM. The same measure, in the same setting: the figure for `Cc1cc(Nc2cc(F)cc(F)c2)nc(N)n1` [Compound 60, N^4-(3,5-Difluorophenyl)-6-methylpyrimidine-2,4-diamine] is 70 µM. On to `Nc1nccc(Nc2cc(Cl)cc(Cl)c2)n1` [Compound 8], for which the EC50 amounted to 9.9 µM. Same read-out and setting: the figure for `COC(=O)c1cc(Nc2cc(C)nc(N)n2)cc(C(=O)OC)c1` [Compound 49, Dimethyl 5-((2-amino-6-methylpyrimidin-4-yl)amino)isophthalate] is 42 µM; for `Nc1nc2c(c(Nc3cc(Cl)cc(Cl)c3)n1)CCC2` [Compound 15] it is 19 µM. On the same count and under the same terms, the figure for `Cc1cc(Nc2cc(C(F)(F)F)cc(C(F)(F)F)c2)nc(N)n1` [Compound 46, N^4-(3,5-Bis(trifluoromethyl)phenyl)-6-methylpyrimidine-2,4-diamine] is 14 µM; for `Cc1cc(N)cc(Nc2cc(Cl)cc(Cl)c2)n1` [Compound 19, N^2-(3,5-Dichlorophenyl)-6-methylpyridine-2,4-diamine] it is 13 µM. Same read-out and setting: the figure for `Cc1cc(Nc2cc(Cl)cc(-c3ccc(F)cc3)c2)nc(N)n1` [Compound 91, N^4-(5-Chloro-4′-fluoro-[1,1′-biphenyl]-3-yl)-6-methylpyrimidine-2,4-diamine] is 1.6 µM. Consider `Cc1cc(Nc2cc(C(=O)O)cc(C(=O)O)c2)nc(N)n1` [Compound 48, 5-((2-Amino-6-methylpyrimidin-4-yl)amino)isophthalic acid], for which the EC50 was greater than 100 µM. As for `Cc1cc(Nc2cc(Cl)cc(-c3ccc(C#N)cc3)c2)nc(N)n1` [Compound 96, 3′-((2-Amino-6-methylpyrimidin-4-yl)amino)-5′-chloro-[1,1′-biphenyl]-4-carbonitrile], the half-maximal effective concentration (EC50) came to 1 µM. Regarding `Cc1nc(N)nc(Nc2cc(Cl)cc(Cl)c2)c1C` [Compound 16], the EC50 amounted to 17 µM. Turning to `Cc1cc(Nc2cc(Cl)cc(Cl)c2)nc(N(C)C)n1` [Compound 25, N^4-(3,5-Dichlorophenyl)-N^2,N^2,6-trimethylpyrimidine-2,4-diamine], the concentration for a half-maximal effect (EC50) came to 14 µM.

On to `Cc1cc(Nc2cc(Cl)cc(-c3ccc(N(C)C)cc3)c2)nc(N)n1` [Compound 100, N^4-(5-Chloro-4′-(dimethylamino)-[1,1′-biphenyl]-3-yl)-6-methylpyrimidine-2,4-diamine], for which the EC50 was 5 µM. Still for that read-out and setting: the figure for `Cc1cc(Nc2cc(Cl)cc(C#N)c2)nc(N)n1` [Compound 33, 3-((2-Amino-6-methylpyrimidin-4-yl)amino)-5-chlorobenzonitrile] is 12 µM; for `Cc1cc(N(C)c2cc(Cl)cc(Cl)c2)nc(N)n1` [Compound 28, N^4-(3,5-Dichlorophenyl)-N^4,6-dimethylpyrimidine-2,4-diamine] it is 38 µM; for `CCOc1cc(Br)cc(Nc2cc(C)nc(N)n2)c1` [Compound 39, N^4-(3-Bromo-5-ethoxyphenyl)-6-methylpyrimidine-2,4-diamine] it is 4.4 µM. The same measure, in the same setting: for `Cc1cc(NCCc2cc(Cl)cc(Cl)c2)nc(N)n1` [Compound 31, N^4-(3,5-Dichlorophenethyl)-6-methylpyrimidine-2,4-diamine] the value was 5.7 µM; for `Cc1cc(Nc2cc(S(C)(=O)=O)cc(S(C)(=O)=O)c2)nc(N)n1` [Compound 45, N^4-(3,5-Bis(methylsulfonyl)phenyl)-6-methylpyrimidine-2,4-diamine], greater than 100 µM.

The subject of another experiment is prozyme protein levels in T. brucei cells. The experiment is described as follows: Western blot analysis of prozyme levels in treated T. brucei cells. The class given is cell-based. Conditions: 24 h treatment at 1.5 × EC50. (Immunoblotting shows a protein as a band on a membrane.)
As for `Cc1cc(Nc2cc(Cl)cc(Cl)c2)ncn1` [Compound 23, N-(3,5-Dichlorophenyl)-6-methylpyrimidin-4-amine], the “prozyme protein level vs vehicle-only control” value is “vehicle-only levels of the prozyme protein”. The same measure, in the same setting: the entry for `Nc1nc(Cl)cc(Nc2cc(Cl)cc(Cl)c2)n1` [Compound 13] is “vehicle-only levels of the prozyme protein”. Same read-out and setting: for `Nc1nccc(Nc2cc(Cl)cc(Cl)c2)n1` [Compound 8] the value was “induced prozyme above the vehicle-only control levels”.

The next experiment has as its system T. brucei AdoMetDC/prozyme. The experiment is described as follows: biochemical. Conditions: pH 7.2; human vs T. brucei AdoMetDC.
With `Cc1cc(Nc2cc(Br)cc(Br)c2)nc(N)n1` [Compound 44, N^4-(3,5-Dibromophenyl)-6-methylpyrimidine-2,4-diamine], the “selectivity ratio (HsIC50/TbIC50)” value is recorded as “exceeded 100”.

A further experiment has as its target T1, T. brucei AdoMetDC/prozyme (Trypanosoma brucei brucei, UniProt P50244).
T1 sequence (P50244 86-370 limits assumed): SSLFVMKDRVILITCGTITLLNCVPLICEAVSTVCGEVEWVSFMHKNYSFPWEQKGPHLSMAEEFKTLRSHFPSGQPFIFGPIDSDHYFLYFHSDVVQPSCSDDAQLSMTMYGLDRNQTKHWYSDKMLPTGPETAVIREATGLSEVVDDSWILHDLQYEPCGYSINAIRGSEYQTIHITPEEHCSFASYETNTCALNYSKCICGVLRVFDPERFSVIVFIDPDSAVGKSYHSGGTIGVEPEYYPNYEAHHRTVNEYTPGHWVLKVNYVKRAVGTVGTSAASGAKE
Put plainly: biochemical. Conditions: Tb IC50, pH 7.2; mean, triplicate, 95% CI in parentheses.
`Nc1cc(Nc2cc(Cl)cc(Cl)c2)ccn1` [Compound 21, N^4-(3,5-Dichlorophenyl)pyridine-2,4-diamine]: the half-maximal inhibitory concentration (IC50) came out at 29 µM.

One may read the EC50 as the concentration that produces a half-maximal response. Broadly, the IC50 is the midpoint of a concentration-inhibition curve.
